Source: US20240025906A1 (NEURON23, INC., priority 2022, published 2024)

Tests used:
[1] = biological target: T1, TYK2 JH2 (Homo sapiens, UniProt P29597); assay: TYK2 JH2 binding assay (KINOMEscan KdELECT competitive binding); conditions: TYK2 JH2 domain, KINOMEscan KdELECT (Assay A); read-out: Biochemical TYK2_JH2_Kd
T1 construct: purchased DiscoverX (KINOMEscan KdELECT service); host or cells: E. coli BL21-derived (T7 phage display) or HEK-293
Procedure, shortened: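 Competition binding, KdELECT format. Kinase (phage-tagged, E. coli BL21-derived host; or HEK-293, DNA-tagged) + ligand-coated streptavidin beads + cpd, 1 h RT, final DMSO 0.9%. Wash, elute 30 min with 0.5 μM non-biotinylated ligand; qPCR readout. Kd: 11-pt, 3-fold series.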

[2] = test system: JAK1/TYK2 pSTAT5 (Tyr694/699) in THP-1 cell line; assay: IFNa-stimulated JAK1/TYK2 pSTAT5 (Tyr694/699) inhibition cellular assay, AlphaLISA; format: cell-based; conditions: Homo sapiens; THP-1 cells, IFNa-stimulated, AlphaLISA (Assay B); read-out: Cellular THP1_IFNa-pSTATS_IC50
Procedure, shortened: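 THP-1, 2e4 cells/well, HBSS; cpd 1 h 37 °C (10000–0.04 nM final, 6-fold, 8 pt); IFNa 100 ng/mL added, 30 min; lyse, freeze −80 °C; pSTAT5 AlphaLISA, 615 nm; 4PL IC50, bottom fixed 0, slope −1.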

T1 sequence (P29597 589-875 limits assumed): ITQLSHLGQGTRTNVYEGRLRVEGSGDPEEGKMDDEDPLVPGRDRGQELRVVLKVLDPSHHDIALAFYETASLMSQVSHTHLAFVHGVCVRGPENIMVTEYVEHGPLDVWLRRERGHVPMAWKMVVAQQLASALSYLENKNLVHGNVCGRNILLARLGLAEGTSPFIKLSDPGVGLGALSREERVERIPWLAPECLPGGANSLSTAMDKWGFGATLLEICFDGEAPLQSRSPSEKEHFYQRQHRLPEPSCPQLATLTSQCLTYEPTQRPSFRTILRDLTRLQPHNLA

Row | SMILES | Kd [1] [µM] | IC50 [2] [µM]
1 | CNc1ncc(-c2ccccc2SC)c2cc(NC(=O)C3CC3)ncc12 [Example 47, N-(8-(methylamino)-5-(2-(methylthio)phenyl)-2,7-naphthyridin-3-yl)cyclopropanecarboxamide] | 0.1 to 1 | > 0.5
2 | CNc1ncc(-c2ccccc2S(C)(=O)=O)c2cc(NC(=O)C3CC3)ncc12 [Example 48, N-(8-(methylamino)-5-(2-(methylsulfonyl)phenyl)-2,7-naphthyridin-3-yl)cyclopropanecarboxamide] | 1 to 10 | > 0.5
3 | CNc1ncc(-c2cccc(-c3ncn(C)n3)c2OC)c2cc(NC(=O)C3CC3)ncc12 [Example 49, N-(5-(2-methoxy-3-(1-methyl-1H-1,2,4-triazol-3-yl)phenyl)-8-(methylamino)-2,7-naphthyridin-3-yl)cyclopropanecarboxamide] | ≤ 0.1 | > 0.5
4 | CNc1ncc(-c2ccncn2)c2cc(NC(=O)C3CC3)ncc12 [Example 50, N-(8-(methylamino)-5-(pyrimidin-4-yl)-2,7-naphthyridin-3-yl)cyclopropanecarboxamide] | ≤ 0.1 | > 0.5
5 | CNc1ncc(-c2ccnn2C2CCCCO2)c2cc(NC(=O)C3CC3)ncc12 (centres unmarked) [Example 51, N-(8-(methylamino)-5-(1-(tetrahydro-2H-pyran-2-yl)-1H-pyrazol-5-yl)-2,7-naphthyridin-3-yl)cyclopropanecarboxamide] | 1 to 10 | > 0.5
6 | CNc1ncc(-c2ccn[nH]2)c2cc(NC(=O)C3CC3)ncc12 [Example 52, N-(8-(methylamino)-5-(1H-pyrazol-5-yl)-2,7-naphthyridin-3-yl)cyclopropanecarboxamide] | ≤ 0.1 | > 0.5
7 | CNc1ncc(-c2cccc(-c3ncn(C)n3)c2)c2cc(NC(=O)C3CC3)ncc12 [Example 53, N-(5-(3-(1-methyl-1H-1,2,4-triazol-3-yl)phenyl)-8-(methylamino)-2,7-naphthyridin-3-yl)cyclopropanecarboxamide] | ≤ 0.1 | > 0.5
8 | CNc1ncc(-c2cccc(-c3ncnn3C)c2)c2cc(NC(=O)C3CC3)ncc12 [Example 54, N-(5-(3-(1-methyl-1H-1,2,4-triazol-5-yl)phenyl)-8-(methylamino)-2,7-naphthyridin-3-yl)cyclopropanecarboxamide] | ≤ 0.1 | > 0.5
9 | CNc1ncc(N2CCCC2)c2cc(NC(=O)C3CC3)ncc12 [Example 55, N-(8-(methylamino)-5-(pyrrolidin-1-yl)-2,7-naphthyridin-3-yl)cyclopropanecarboxamide] | ≤ 0.1 | > 0.5
10 | CNc1ncc(N2CCCCC2)c2cc(NC(=O)C3CC3)ncc12 [Example 56, N-(8-(methylamino)-5-(piperidin-1-yl)-2,7-naphthyridin-3-yl)cyclopropanecarboxamide] | ≤ 0.1 | > 0.5
11 | CNc1ncc(-n2cccn2)c2cc(NC(=O)C3CC3)ncc12 [Example 57, N-(8-(methylamino)-5-(1H-pyrazol-1-yl)-2,7-naphthyridin-3-yl)cyclopropanecarboxamide] | ≤ 0.1 | > 0.5
12 | CNc1ncc(-c2nccs2)c2cc(NC(=O)C3CC3)ncc12 [Example 63, N-(8-(methylamino)-5-(thiazol-2-yl)-2,7-naphthyridin-3-yl)cyclopropanecarboxamide] | ≤ 0.1 | > 0.5
13 | CNc1ncc(-c2ccn(CC(F)(F)F)n2)c2cc(NC(=O)C3CC3)ncc12 [Example 64, N-(8-(methylamino)-5-(1-(2,2,2-trifluoroethyl)-1H-pyrazol-3-yl)-2,7-naphthyridin-3-yl)cyclopropanecarboxamide] | ≤ 0.1 | ≤ 0.5
14 | CNc1ncc(-c2cscn2)c2cc(NC(=O)C3CC3)ncc12 [Example 65, N-(8-(methylamino)-5-(thiazol-4-yl)-2,7-naphthyridin-3-yl)cyclopropanecarboxamide] | ≤ 0.1 | > 0.5
15 | CNc1ncc(-c2ncc(C)s2)c2cc(NC(=O)C3CC3)ncc12 [Example 66, N-(8-(methylamino)-5-(5-methylthiazol-2-yl)-2,7-naphthyridin-3-yl)cyclopropanecarboxamide] | ≤ 0.1 | > 0.5
16 | CNc1ncc(C2=CCOCC2)c2cc(NC(=O)C3CC3)ncc12 [Example 67, N-(5-(3,6-dihydro-2H-pyran-4-yl)-8-(methylamino)-2,7-naphthyridin-3-yl)cyclopropanecarboxamide] | ≤ 0.1 | > 0.5
17 | CNc1ncc(C2CCOCC2)c2cc(NC(=O)C3CC3)ncc12 [Example 68, N-(8-(methylamino)-5-(tetrahydro-2H-pyran-4-yl)-2,7-naphthyridin-3-yl)cyclopropanecarboxamide] | ≤ 0.1 | > 0.5

Row | SMILES | Kd [1] [µM] | IC50 [2] [µM]
18 | CNc1ncc(C2=CCCCC2)c2cc(NC(=O)C3CC3)ncc12 [Example 69, N-(5-(cyclohex-1-en-1-yl)-8-(methylamino)-2,7-naphthyridin-3-yl)cyclopropanecarboxamide] | ≤ 0.1 | > 0.5
19 | CNc1ncc(C2CCCCC2)c2cc(NC(=O)C3CC3)ncc12 [Example 70, N-(5-cyclohexyl-8-(methylamino)-2,7-naphthyridin-3-yl)cyclopropanecarboxamide] | ≤ 0.1 | > 0.5
20 | C=Cc1cnc(NC)c2cnc(NC(=O)C3CC3)cc12 [Example 71, N-(8-(methylamino)-5-vinyl-2,7-naphthyridin-3-yl)cyclopropanecarboxamide] | ≤ 0.1 | > 0.5
21 | CCc1cnc(NC)c2cnc(NC(=O)C3CC3)cc12 [Example 72, N-(5-ethyl-8-(methylamino)-2,7-naphthyridin-3-yl)cyclopropanecarboxamide] | ≤ 0.1 | > 0.5
22 | C=C(C)c1cnc(NC)c2cnc(NC(=O)C3CC3)cc12 [Example 73, N-(8-(methylamino)-5-(prop-1-en-2-yl)-2,7-naphthyridin-3-yl)cyclopropanecarboxamide] | ≤ 0.1 | > 0.5
23 | CNc1ncc(C(C)C)c2cc(NC(=O)C3CC3)ncc12 [Example 74, N-(5-isopropyl-8-(methylamino)-2,7-naphthyridin-3-yl)cyclopropanecarboxamide] | ≤ 0.1 | > 0.5
24 | CNc1ncc(C2=CCOC2)c2cc(NC(=O)C3CC3)ncc12 [Example 75, N-(5-(2,5-dihydrofuran-3-yl)-8-(methylamino)-2,7-naphthyridin-3-yl)cyclopropanecarboxamide] | ≤ 0.1 | > 0.5
25 | CNc1ncc(C2CCOC2)c2cc(NC(=O)C3CC3)ncc12 (centres unmarked) [Example 76, N-(8-(methylamino)-5-(tetrahydrofuran-3-yl)-2,7-naphthyridin-3-yl)cyclopropanecarboxamide] | ≤ 0.1 | > 0.5
26 | CNc1ncc(C2=CCCOC2)c2cc(NC(=O)C3CC3)ncc12 [Example 77, N-(5-(5,6-dihydro-2H-pyran-3-yl)-8-(methylamino)-2,7-naphthyridin-3-yl)cyclopropanecarboxamide] | ≤ 0.1 | > 0.5
27 | CNc1ncc(C2CCCOC2)c2cc(NC(=O)C3CC3)ncc12 (centres unmarked) [Example 78, N-(8-(methylamino)-5-(tetrahydro-2H-pyran-3-yl)-2,7-naphthyridin-3-yl)cyclopropanecarboxamide] | ≤ 0.1 | > 0.5
28 | CNc1ncc(/C=C2\CCOC2)c2cc(NC(=O)C3CC3)ncc12 [Example 79, (E)-N-(5-((dihydrofuran-3(2H)-ylidene)methyl)-8-(methylamino)-2,7-naphthyridin-3-yl)cyclopropanecarboxamide] | ≤ 0.1 | > 0.5
29 | CNc1ncc(CC2CCOC2)c2cc(NC(=O)C3CC3)ncc12 (centres unmarked) [Example 80, N-(8-(methylamino)-5-((tetrahydrofuran-3-yl)methyl)-2,7-naphthyridin-3-yl)cyclopropanecarboxamide] | ≤ 0.1 | > 0.5
30 | CNc1ncc(-c2csc(C)n2)c2cc(NC(=O)C3CC3)ncc12 [Example 81, N-(8-(methylamino)-5-(2-methylthiazol-4-yl)-2,7-naphthyridin-3-yl)cyclopropanecarboxamide] | ≤ 0.1 | > 0.5
31 | CNc1ncc(-c2ccsn2)c2cc(NC(=O)C3CC3)ncc12 [Example 82, N-(5-(isothiazol-3-yl)-8-(methylamino)-2,7-naphthyridin-3-yl)cyclopropanecarboxamide] | ≤ 0.1 | > 0.5
32 | CNc1ncc(-c2cnsc2)c2cc(NC(=O)C3CC3)ncc12 [Example 83, N-(5-(isothiazol-4-yl)-8-(methylamino)-2,7-naphthyridin-3-yl)cyclopropanecarboxamide] | ≤ 0.1 | > 0.5
33 | CNc1ncc(-c2ccns2)c2cc(NC(=O)C3CC3)ncc12 [Example 84, N-(5-(isothiazol-5-yl)-8-(methylamino)-2,7-naphthyridin-3-yl)cyclopropanecarboxamide] | ≤ 0.1 | > 0.5
34 | CNc1ncc(C2=CCOC2=O)c2cc(NC(=O)C3CC3)ncc12 [Example 85, N-(8-(methylamino)-5-(2-oxo-2,5-dihydrofuran-3-yl)-2,7-naphthyridin-3-yl)cyclopropanecarboxamide] | 0.1 to 1 | > 0.5
